Results reported in paper PMC4140855, “Production of an Attenuated Phenol-Soluble Modulin Variant Unique to the MRSA Clonal Complex 30 Increases Severity of Bloodstream Infection” (PLoS Pathogens, 2014).

Experiments:
human neutrophils [1] = details: ref [11]; cited from earlier work
Text: PSMs are short, amphipathic, α-helical peptides with a major impact on S. aureus virulence, [11]. The PSMα peptides of S. aureus in particular cause lysis of a variety of cell types, including neutrophils (or polymorphonuclear leukocytes, PMNs), monocytes, erythrocytes, and osteoblasts [11]–[13]. The rather low target specificity of PSM-mediated cytolysis is due to the fact that lysis is believed to be receptor-independent, [15], which is reflected by the capacity of PSMs to lyse artificial vesicles. In addition, PSMs have pro-inflammatory capacities that are recep ...

human neutrophils [2] = assay: Human neutrophil chemotaxis / Ca2+ flux with FPR1 inhibited by CHIPS; type: cell-based; details: peptide 100 nM; CHIPS 1.4 µg/ml, 20 min pre-incubation at room temperature; three donors, quadruplicate
Method: Next, we analyzed Ca^2+ flux as a general measure to test for neutrophil activation, as used in previous studies. HL60 cells stably transfected with different FPR receptor genes were used to determine which FPR receptors are differentially activated by PSMα3 versus PSMα3N22Y (Fig. 4A). […] At a peptide concentration of 100 nM, we observed a difference of ∼factor 2 in chemotactic activity comparing the two peptides when FPR1 recognition was inhibited by CHIPS, likely attributable to FPR2-mediated recognition. […]
(A) Differential activation of FPRs by PSMα3 versus PSMα3N22Y was measured using synthetic peptides and Ca^2+ flux observed in HL60 cells stably transfected with the corresponding FPR genes as readout, using three biological and two technical replicates. The calculated Kd values are shown on the right. […]
(§1) Human neutrophils were isolated from venous blood of healthy donors as described, [39]. Neutrophil chemotaxis and Ca^2+ flux were determined as previously described, [24]. […] Chemotaxis of neutrophils was determined using a transwell system (Costar) with analysis of neutrophil migration using fluorescence labeling. Calcium fluxes were monitored as a surrogate marker for chemotaxis since it can be measured more robustly and accurately than chemotaxis. […] Measurements of 2,000 events were performed and Ca^2+ flux was expressed as relative fluorescence corrected for buffer controls. […]

human neutrophils [3] = assay: Chemotaxis of human neutrophils (transwell migration); type: cell-based; details: synthetic peptides, all tested concentrations, three donors, quadruplicate, compared to PSMα3N22Y
Method: Figure 3 PSMα3N22Y has decreased chemotactic activity toward human neutrophils. (A) Chemotaxis of human neutrophils (neutrophil migration) was measured using a transwell system with synthetic peptides at the indicated concentrations. Neutrophils were from three donors and the measurements were performed in quadruplicate. **, p<0.01; ****, p<0.0001. (B) Chemotaxis of human neutrophils tested with culture filtrates (diluted 1∶100) of strains MRSA252 (252, expressing PSMα3N22Y) and 252* (MRSA252 altered to express PSMα3); ****, p<0.0001. Data are from two donors with triplicate measurements. […]
as §1, with “chemotaxis. For measurement of Ca^2+ fluxes, 5×10^6 neutrophils/ml were labeled with a fluorescent dye and analyzed with a FACScalibur (Becton Dickinson) as described.” for “chemotaxis.”

Q: Which “Capacity to elicit chemotaxis by neutrophils, relative to other PSMs” value (human neutrophils [1]) does the source give for `CSCC[C@H](NC=O)C(=O)N[C@@H](CCC(=O)O)C(=O)N[C@@H](Cc1ccccc1)C(=O)N[C@H](C(=O)N[C@@H](C)C(=O)N[C@@H](CCCCN)C(=O)N[C@@H](CC(C)C)C(=O)N[C@@H](Cc1ccccc1)C(=O)N[C@@H](CCCCN)C(=O)N[C@@H](Cc1ccccc1)C(=O)N[C@@H](Cc1ccccc1)C(=O)N[C@@H](CCCCN)C(=O)N[C@@H](CC(=O)O)C(=O)N[C@@H](CC(C)C)C(=O)N[C@@H](CC(C)C)C(=O)NCC(=O)N[C@@H](CCCCN)C(=O)N[C@@H](Cc1ccccc1)C(=O)N[C@@H](CC(C)C)C(=O)NCC(=O)N[C@@H](CC(N)=O)C(=O)N[C@@H](CC(N)=O)C(=O)O)C(C)C` [PSMα3] here?
A: by far exceeds that of any other PSM of S. aureus

Q: And the “Pro-inflammatory and cytolytic potency relative to other PSMs of S. aureus” value (human neutrophils [1])?
A: by far most pro-inflammatory and cytolytic PSM of S. aureus

Q: What about the “Factor of difference in chemotactic activity between the two peptides, FPR1 inhibited by CHIPS” value (human neutrophils [2]) of the same molecule?
A: ~2

Q: What about the “Capacity to cause neutrophil chemotaxis” value (human neutrophils [3]) of the same molecule?
A: about twice higher than that caused by PSMα3N22Y at all tested concentrations
